Data published in patent publication US10004701B2, “Methods and compositions for treating infection” (UNIVERSITY OF ROCHESTER, priority 2012, dated 2018).
Where a name gives a salt, the structure may show the parent alone. Read-outs that look alike come from different tables or passages of the source.

Assays:
Test in all cases: AK assay 384-well format, Prestwick library screening
[1] = tested on: E. faecium; assay type: cell-based, Enterococcus faecium; conditions: for fold induction at 50 µM: Enterococcus faecium, 3 h
[2] = tested on: E. coli; assay type: cell-based, Escherichia coli; conditions: 50 μM final drug concentration; for fold induction at 50 µM: Escherichia coli, 3 h
[3] = tested on: S. aureus strain USA300-0114; assay type: cell-based, Staphylococcus aureus; conditions: for fold induction at 50 µM: Staphylococcus aureus, USA300, 3 h
[4] = tested on: K. pneumoniae; assay type: cell-based, Klebsiella pneumoniae; conditions: for fold induction at 50 µM: Klebsiella pneumoniae, 3 h
[5] = tested on: P. aeruginosa; assay type: cell-based, Pseudomonas aeruginosa; conditions: for fold induction at 50 µM: Pseudomonas aeruginosa, 3 h
[6] = tested on: E. cloacae; assay type: cell-based, Enterobacter cloacae; conditions: for fold induction at 50 µM: Enterobacter cloacae, 3 h
[7] = tested on: A. baumannii strain 98-37-09; assay type: cell-based, Acinetobacter baumannii; conditions: for fold induction at 50 µM: Acinetobacter baumannii, 983709, 3 h
[8] = 50 μM final drug concentration, cutoff for positive-scoring molecules 3-fold increase, read-out: AK-based Prestwick Library Screening Results, K. pneumoniae (fold increase in extracellular AK activity)
[9] = 50 μM final drug concentration, cutoff for positive-scoring molecules 3-fold increase, read-out: AK-based Prestwick Library Screening Results, A. baumannii (fold increase in extracellular AK activity)
[10] = 50 μM final drug concentration, planktonic, […]
[11] = planktonic E. faecium, 50 μM final drug concentration, 384-well, cutoff for positive-scoring molecules 3-fold increase, read-out: AK-based Prestwick Library Screening Results: E. faecium (increase in extracellular AK activity)
[12] = planktonic S. aureus, 50 μM final drug concentration, 384-well, cutoff for positive-scoring molecules 3-fold increase, read-out: AK-based Prestwick Library Screening Results: S. aureus (increase in extracellular AK activity)
[13] = planktonic K. pneumoniae, 50 μM final drug concentration, 384-well, cutoff for positive-scoring molecules 3-fold increase, read-out: AK-based Prestwick Library Screening Results: K. pneumoniae (increase in extracellular AK activity)
[14] = planktonic P. aeruginosa, 50 μM final drug concentration, 384-well, cutoff for positive-scoring molecules 3-fold increase, read-out: AK-based Prestwick Library Screening Results: P. aeruginosa (increase in extracellular AK activity)
[15] = planktonic E. cloacae, 50 μM final drug concentration, 384-well, cutoff for positive-scoring molecules 3-fold increase, read-out: AK-based Prestwick Library Screening Results: E. cloacae (increase in extracellular AK activity)
[16] = planktonic A. baumannii, 50 μM final drug concentration, 384-well, cutoff for positive-scoring molecules 3-fold increase, read-out: AK-based Prestwick Library Screening Results: A. baumannii (increase in extracellular AK activity)
[17] = 50 μM final drug concentration, 384-well format, cutoff for positive-scoring molecules 3-fold increase, read-out: AK-based Prestwick Library Screening Results, E. faecium (increase in extracellular AK activity)
[18] = 384-well format, cutoff for positive-scoring molecules 3-fold increase, read-out: AK-based Prestwick Library Screening Results, E. coli (increase in extracellular AK activity)
[19] = 50 μM final drug concentration, 384-well format, cutoff for positive-scoring molecules 3-fold increase, read-out: AK-based Prestwick Library Screening Results, S. aureus (increase in extracellular AK activity)
[20] = 50 μM final drug concentration, 384-well format, cutoff for positive-scoring molecules 3-fold increase, read-out: AK-based Prestwick Library Screening Results, K. pneumoniae (increase in extracellular AK activity)
[21] = 50 μM final drug concentration, 384-well format, cutoff for positive-scoring molecules 3-fold increase, read-out: AK-based Prestwick Library Screening Results, P. aeruginosa (increase in extracellular AK activity)
[22] = 50 μM final drug concentration, 384-well format, cutoff for positive-scoring molecules 3-fold increase, read-out: AK-based Prestwick Library Screening Results, E. cloacae (increase in extracellular AK activity)
[23] = 50 μM final drug concentration, 384-well format, cutoff for positive-scoring molecules 3-fold increase, read-out: AK-based Prestwick Library Screening Results, A. baumannii (increase in extracellular AK activity)

For CC(=O)N(CC(O)CN(C(C)=O)c1c(I)c(C(=O)NCC(O)CO)c(I)c(C(=O)NCC(O)CO)c1I)c1c(I)c(C(=O)NCC(O)CO)c(I)c(C(=O)NCC(O)CO)c1I (stereo not shown) [Iodixanol], the fold induction at 50 µM ([1]; 50 μM final drug concentration, […], read-out: AK-based Prestwick Library Screening Results, E. faecium (fold increase in extracellular AK activity)) was 1.1, the fold induction at 50 µM ([2]; […], read-out: AK-based Prestwick Library Screening Results, E. coli (fold increase in extracellular AK activity)) was 1.3 and the fold induction at 50 µM ([3]; 50 μM final drug concentration, […], read-out: AK-based Prestwick Library Screening Results, S. aureus (fold increase in extracellular AK activity)) was 1.3. The fold induction at 50 µM [4, 8] was 1, the fold induction at 50 µM ([5]; 50 μM final drug concentration, […], read-out: AK-based Prestwick Library Screening Results, P. aeruginosa (fold increase in extracellular AK activity)) was 1.2 and the fold induction at 50 µM ([6]; 50 μM final drug concentration, […], read-out: AK-based Prestwick Library Screening Results, E. cloacae (fold increase in extracellular AK activity)) was 1.5. For the same molecule, the fold induction at 50 µM [7, 9] was 1.

With COc1ccc(C2CNC(=O)C2)cc1OC1CCCC1 (stereo not shown) [Rolipram] the fold induction at 50 µM ([1]; 50 μM final drug concentration, cutoff for positive-scoring molecules 3-fold increase, read-out: AK-based Prestwick Library Screening Results, E. faecium (fold increase in extracellular AK activity)) was 1, the fold induction at 50 µM ([2]; cutoff for positive-scoring molecules 3-fold increase, read-out: AK-based Prestwick Library Screening Results, E. coli (fold increase in extracellular AK activity)) was 1.1 and the fold induction at 50 µM ([3]; 50 μM final drug concentration, cutoff for positive-scoring molecules 3-fold increase, read-out: AK-based Prestwick Library Screening Results, S. aureus (fold increase in extracellular AK activity)) was 1.3. The fold induction at 50 µM [4, 8] was 1, the fold induction at 50 µM ([5]; 50 μM final drug concentration, cutoff for positive-scoring molecules 3-fold increase, read-out: AK-based Prestwick Library Screening Results, P. aeruginosa (fold increase in extracellular AK activity)) was 1.2 and the fold induction at 50 µM ([6]; 50 μM final drug concentration, cutoff for positive-scoring molecules 3-fold increase, read-out: AK-based Prestwick Library Screening Results, E. cloacae (fold increase in extracellular AK activity)) was 1.7. It also gave a fold induction at 50 µM [7, 9] of 1.2.

In the case of COc1ccccc1N1CCN(CCCCNC(=O)c2ccc3ccccc3c2)CC1 [DO 897/99], the “AK-based Prestwick Library Screening Results, E. faecium (fold increase in extracellular AK activity)” value [1, 10] is reported as 1.0, the “AK-based Prestwick Library Screening Results, E. coli (fold increase in extracellular AK activity)” value ([2]; planktonic, […]) is reported as 1.4 and the “AK-based Prestwick Library Screening Results, S. aureus (fold increase in extracellular AK activity)” value [3, 10] is reported as 1.1. The “AK-based Prestwick Library Screening Results, K. pneumoniae (fold increase in extracellular AK activity)” value [4, 10] was 1.3, the “AK-based Prestwick Library Screening Results, P. aeruginosa (fold increase in extracellular AK activity)” value [5, 10] was 1.3 and the “AK-based Prestwick Library Screening Results, E. cloacae (fold increase in extracellular AK activity)” value [6, 10] was 1.7. For the same molecule, the “AK-based Prestwick Library Screening Results, A. baumannii (fold increase in extracellular AK activity)” value [7, 10] was 1.2.

Molecule CN(Cc1cnc2nc(N)nc(N)c2n1)c1ccc(C(=O)N[C@@H](CCC(=O)O)C(=O)O)cc1 [Methotrexate] has a fold induction at 50 µM [1, 11] of 0.8, a fold induction at 50 µM ([2]; planktonic E. coli, 384-well, […], read-out: AK-based Prestwick Library Screening Results: E. coli (increase in extracellular AK activity)) of 1.1 and a fold induction at 50 µM [3, 12] of 0.9. For the same molecule, the fold induction at 50 µM [4, 13] was 0.8, the fold induction at 50 µM [5, 14] was 1 and the fold induction at 50 µM [6, 15] was 1.3. It also gave a fold induction at 50 µM [7, 16] of 1.

For N[C@@H](Cc1ccc(O)c(O)c1)C(=O)O [Levodopa], the fold induction at 50 µM [1, 17] was 0.8, the fold induction at 50 µM [2, 18] was 0.6 and the fold induction at 50 µM [3, 19] was 0.5. The fold induction at 50 µM [4, 20] was 0.6, the fold induction at 50 µM [5, 21] was 0.5 and the fold induction at 50 µM [6, 22] was 0.8. For the same molecule, the fold induction at 50 µM [7, 23] was 0.7.

Work on COc1ccc2c(c1OC)C(=O)O[C@@H]2[C@H]1c2cc3c(cc2CCN1C)OCO3 [Hydrastine hydrochloride] yielded a fold induction at 50 µM ([1]; planktonic E. faecium, 50 μM final drug concentration, […], read-out: AK-based Prestwick Library Screening Results, E. faecium (increase in extracellular AK activity)) of 1, a fold induction at 50 µM ([2]; planktonic E. coli, […], read-out: AK-based Prestwick Library Screening Results, E. coli (increase in extracellular AK activity)) of 0.9 and a fold induction at 50 µM ([3]; planktonic S. aureus, 50 μM final drug concentration, […], read-out: AK-based Prestwick Library Screening Results, S. aureus (increase in extracellular AK activity)) of 0.6. For the same molecule, the fold induction at 50 µM ([4]; planktonic K. pneumoniae, 50 μM final drug concentration, […], read-out: AK-based Prestwick Library Screening Results, K. pneumoniae (increase in extracellular AK activity)) was 0.8, the fold induction at 50 µM ([5]; planktonic P. aeruginosa, 50 μM final drug concentration, […], read-out: AK-based Prestwick Library Screening Results, P. aeruginosa (increase in extracellular AK activity)) was 0.9 and the fold induction at 50 µM ([6]; planktonic E. cloacae, 50 μM final drug concentration, […], read-out: AK-based Prestwick Library Screening Results, E. cloacae (increase in extracellular AK activity)) was 0.9. It also gave a fold induction at 50 µM ([7]; planktonic A. baumannii, 50 μM final drug concentration, […], read-out: AK-based Prestwick Library Screening Results, A. baumannii (increase in extracellular AK activity)) of 1.

For CNC(C)CCC=C(C)C.CNC(C)CCC=C(C)C.O=C(O)[C@@H](O)[C@H](O)[C@H](O)[C@@H](O)C(=O)O [Isometheptene mutate], the “AK-based Prestwick library screening result, E. faecium (fold increase in extracellular AK activity)” value [1] was 1.0, the “AK-based Prestwick library screening result, E. coli (fold increase in extracellular AK activity)” value ([2]; planktonic E. coli, […]) was 1.2 and the “AK-based Prestwick library screening result, S. aureus (fold increase in extracellular AK activity)” value [3] was 1.2. For the same molecule, the “AK-based Prestwick library screening result, K. pneumoniae (fold increase in extracellular AK activity)” value [4] was 1.1, the “AK-based Prestwick library screening result, P. aeruginosa (fold increase in extracellular AK activity)” value [5] was 1.1 and the “AK-based Prestwick library screening result, E. cloacae (fold increase in extracellular AK activity)” value [6] was 1.2. For the same molecule, the “AK-based Prestwick library screening result, A. baumannii (fold increase in extracellular AK activity)” value [7] was 1.5.

With NCCCC[C@H](N[C@@H](CCc1ccccc1)C(=O)O)C(=O)N1CCC[C@H]1C(=O)O [Lisinopril] the fold induction at 50 µM [1, 11] was 1, the fold induction at 50 µM ([2]; planktonic E. coli, 384-well, cutoff for positive-scoring molecules 3-fold increase, read-out: AK-based Prestwick Library Screening Results: E. coli (increase in extracellular AK activity)) was 1.2 and the fold induction at 50 µM [3, 12] was 4.3. The fold induction at 50 µM [4, 13] was 1, the fold induction at 50 µM [5, 14] was 1.2 and the fold induction at 50 µM [6, 15] was 1.5. It also gave a fold induction at 50 µM [7, 16] of 1.3.

Work on Cc1cccc(C)c1OCC(C)N (stereo not shown) [Mexiletine hydrochloride] yielded a fold induction at 50 µM [1, 17] of 0.9, a fold induction at 50 µM [2, 18] of 0.6 and a fold induction at 50 µM [3, 19] of 0.7. For the same molecule, the fold induction at 50 µM [4, 20] was 0.6, the fold induction at 50 µM [5, 21] was 0.7 and the fold induction at 50 µM [6, 22] was 0.7. The fold induction at 50 µM [7, 23] was 0.5.

Work on COc1ccccc1OCC(O)COC(N)=O (stereo not shown) [Methocarbamol] yielded a fold induction at 50 µM [1, 17] of 0.9, a fold induction at 50 µM [2, 18] of 0.9 and a fold induction at 50 µM [3, 19] of 0.8. For the same molecule, the fold induction at 50 µM [4, 20] was 0.6, the fold induction at 50 µM [5, 21] was 0.9 and the fold induction at 50 µM [6, 22] was 1. The fold induction at 50 µM [7, 23] was 0.9.
